Results published in PMC11677243, “Target protein identification in live cells and organisms with a non-diffusive proximity tagging system” (eLife, 2024).

Legend:
HEK293T cells [1] = assay: POST-IT^DC661-H1 target-ID by SILAC (LC-MS/MS, DC660 competition); format: cell-based, Homo sapiens; settings: heavy: 200 nM DC661-H1, light: DC661-H1 (200 nM) and DC660 (2 µM)
Protocol: A stable HEK293T cells expressing the POST-IT system was generated using the PiggyBac transposon system. Briefly, HEK293T cells on a 60 mm dish were co-transfected with 8 µg of PB-puro-CMV-POST-IT-Tet-SBP^K4R-sPup^K61R-iresGFP and 2 µg of the Super PiggyBac Transposase expression vector (PB200PA-1, System Biosciences, USA). Four days later, cells were treated with 5 µg/ml puromycin for about 2 weeks. Media containing puromycin were changed every 3–4 days.
The stable cell line was cultured in SILAC DMEM (280001200, Silantes, Germany) without arginine, lysine, and glutamine, supplemented with 10% dialyzed FBS (C3820-0100, VivaCell Biosciences, China) and 2 mM glutamine. The SILAC medium included 600 mg/l proline (P120032, aladdin, China) to prevent the conversion of arginine to proline ([Bendall et al., 2008]). […]
The expression of POST-IT was induced by the addition of 100 ng/ml doxycycline. […] Cell debris was removed by centrifugation, and protein concentration was determined by the BCA assay. […]
Excised gels were sliced into small pieces of ~1 mm^3, rinsed three times with Milli-Q water, decolorized with 50% acetonitrile and 100 mM NH4HCO3, and dehydrated with 100% acetonitrile. […] The resulting tryptic peptides were analyzed by LC-MS/MS at the Institute of Hydrobiology (Chinese Academy of Sciences, Wuhan, China). […]

LC3-II [2] = assay: Autophagy inhibition by LC3-II western blot in HEK293T cells; format: cell-based, Homo sapiens; settings: 12 hr
Description: (§1) Cells transfected and/or treated with different compounds were harvested at the end of treatment.

VPS37C-V5 = biological target: T1, VPS37C-V5 (Homo sapiens, UniProt A5D8V6); assay: POST-IT labeling and streptavidin pulldown of VPS37C-V5 in HEK293T cells; format: cell-based; settings: 200 nM DC661-H1, 24 hr
T1 construct: expressed in transfected cells; host or cells: HEK293T

LC3-II [3] = assay: Autophagy inhibition by LC3-II western blot in A375 cells; format: cell-based, Homo sapiens; settings: 12 hr
Description: as §1

HEK293T cells [4] = assay: POST-IT^DH5 target-ID proteomics (LC-MS/MS, dasatinib competition); format: cell-based, Homo sapiens; settings: for FC(DH5/DASA) / log2(FC(DH5/DASA)): DH5 vs DH5 + dasatinib competition, imputed data
Protocol: HEK293T cells were plated on two 100 mm dishes for each condition and co-transfected next day with 8 µg of pTol2-HA-Halo^8KR-PafA^S126A,K172R and 16 µg of pEF6a-SBP^K4R-sPup^K61R per dish. […] Cells were harvested in 1 ml of RIPA buffer, supplemented with a protease inhibitor cocktail for each dish. Following brief sonication, cell debris was removed by centrifugation at maximum speed for 10 min at 4°C. The supernatants were collected and mixed with 200 µl of streptavidin magnetic beads that had been prewashed with RIPA buffer. […] The eluates were combined and precipitated using trichloroacetic acid (TCA)/DOC. The resultant protein pellets were neutralized with 1 M Tris-HCl pH 8.8, and separated by Tricine-SDS-PAGE, and the CBB-stained bands were excised, with those smaller than 10 kD being removed, and processed for mass analysis.
Excised gels were sliced into small pieces of ~1 mm^3, rinsed three times with Milli-Q water, decolorized with 50% acetonitrile and 100 mM NH4HCO3, and dehydrated with 100% acetonitrile. The dehydrated gel pieces were then reduced with 10 mM DTT in 50 mM NH4HCO3 at 56°C for 1 hr, carboxymethylated with 55 mM iodoacetamide in the dark at room temperature for 30 min, and digested with trypsin at a 1:50 enzyme to protein mass ratio at 37°C overnight. The peptides were collected, desalted with ZipTipC18 (ZTC18S096, Millipore, USA), dried under vacuum, and stored at –20°C until MS analysis. The resulting tryptic peptides were analyzed by LC-MS/MS at the Institute of Hydrobiology (Chinese Academy of Sciences, Wuhan, China). LC-MS/MS data acquisition was performed using a Q Exactive HF-X mass spectrometer coupled with an Easy-nLC 1200 system (Thermo Fisher Scientific, USA). The peptide mixtures were initially loaded onto a C18 trap column and subsequently separated on a C18 reverse-phase analytical HPLC column, Acclaim PepMap C18 column (75 µm ID ×250 mm, 2 µm particle size, 100 Å pore size, Thermo Fisher Scientific), employing a 100 min gradient program with mobile phase A (0.1% formic acid) and mobile phase B (80% acetonitrile, 0.1% formic acid). The gradient program was as follows: 0–65 min, 5–23% B; 65–85 min, 23–45% B; 85–86 min, 45–90% B; 87–90 min, 90% B; 90–90.1 min, 90–5% B; 90.1–100 min, 5% B, maintained at a constant flow rate of 300 nl/min. For data-dependent acquisition mode analysis, each scan cycle consisted of one full-scan mass spectrum (R = 60 K, AGC = 3e6, max IT = 20 ms, scan range = 350–1800 m/z) followed by 20 MS/MS events (R = 15 K, AGC = 2e5, max IT = 50 ms). The higher-energy collisional dissociation collision energy was set to 28 for ion fragmentation. The isolation window for precursor selection was set to 1.6 Da. The former target ion exclusion was set for 25 s.
For the identification of DH5 targets, raw MS data were analyzed using MaxQuant (version 2.1.0.0, Max Planck Institute of Biochemistry; [Cox and Mann, 2008]) with the Andromeda search engine. The MS data were aligned to the UniProt human protein database (Proteome ID: UP000005640). […] Variable modifications included oxidation (M), acetyl (Protein N-term), deamidation (NQ), and GGE (K). The false discovery rate for both peptide and protein identification was set at 1%. The ‘Match Between run’ option were enabled, with other settings at their default values. Missing values from identified proteins were filled through random imputation and further analyzed statistically to derive p values through unpaired SAM analysis using PANDA-view ([Chang et al., 2018]). Proteins commonly present under DMSO condition were considered nonspecific background interactions and excluded from further analysis.

SRC [5] = biological target: T2, SRC (Danio rerio, UniProt Q1JPZ3); assay: In vivo pupylation assay using zebrafish embryos; settings: 10 µM DH5, 24 hr, versus DMSO
T2 construct: from tissue; host or cells: whole zebrafish embryos (AB strain) injected with the POST-IT plasmid
Protocol: To express POST-IT in early zebrafish embryos, 20 pg of pUbi-QFGal4-2A-3×Flag-POST-IT plasmid and 25 pg of transposase mRNA were injected into an embryo at the one-cell stage. The next day, GFP-positive and live embryos were selected, dechorionated with Pronase E (HY-114158, MedChemExpress, USA), and divided into two groups of approximately 1000 embryos each. One group was treated with DMSO and the other with 10 µM DH5 for 24 hr. The embryos were then collected, rinsed with PBS, and lysed in cell lysis buffer using a motorized plastic pestle. The resulting lysates were cleared by centrifugation, and protein concentrations were measured using the BCA assay. Samples were diluted to 2 mg/ml in 1 ml, mixed with 200 µl of prewashed streptavidin magnetic beads, and incubated at 4°C for 3 hr. The beads were washed five times with wash buffer A. Proteins were eluted with 2×SDS sample buffer and subsequently processed for western blot analysis.

SEPHS2 = biological target: T3, SEPHS2 (Homo sapiens, UniProt Q99611, U60C); assay: MST binding to Cy5-labeled SEPHS2; settings: Cy5-labeled recombinant SEPHS2; n = 2, mean ± s.d.
T3 construct: SBPII (N); 6xHis (pET28a backbone, Ni column purification); made in house; host or cells: E. coli BL21(DE3)

SRC [6] = biological target: T4, SRC (Homo sapiens, UniProt P12931); assay: In cellulo pupylation and pulldown assay of SRC in HEK293T cells; format: cell-based; settings: 250 nM DH5
T4 construct: endogenous in cells; host or cells: HEK293T

SRC(251-536) = SRC(251-536) (Homo sapiens, UniProt P12931); assay: SRC kinase activity assay (Kinase-Lumi luminescent)
SRC(251-536), sequence (P12931 251-536): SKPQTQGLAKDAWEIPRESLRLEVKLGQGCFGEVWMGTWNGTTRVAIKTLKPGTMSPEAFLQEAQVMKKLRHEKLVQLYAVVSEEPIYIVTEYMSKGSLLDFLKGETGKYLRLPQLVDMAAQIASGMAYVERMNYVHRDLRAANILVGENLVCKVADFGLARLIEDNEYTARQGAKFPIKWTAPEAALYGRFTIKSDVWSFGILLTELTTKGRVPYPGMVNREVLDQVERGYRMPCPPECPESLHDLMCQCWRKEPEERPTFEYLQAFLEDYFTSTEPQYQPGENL

T3 sequence (Q99611 with tags, fused parts or gaps U60C): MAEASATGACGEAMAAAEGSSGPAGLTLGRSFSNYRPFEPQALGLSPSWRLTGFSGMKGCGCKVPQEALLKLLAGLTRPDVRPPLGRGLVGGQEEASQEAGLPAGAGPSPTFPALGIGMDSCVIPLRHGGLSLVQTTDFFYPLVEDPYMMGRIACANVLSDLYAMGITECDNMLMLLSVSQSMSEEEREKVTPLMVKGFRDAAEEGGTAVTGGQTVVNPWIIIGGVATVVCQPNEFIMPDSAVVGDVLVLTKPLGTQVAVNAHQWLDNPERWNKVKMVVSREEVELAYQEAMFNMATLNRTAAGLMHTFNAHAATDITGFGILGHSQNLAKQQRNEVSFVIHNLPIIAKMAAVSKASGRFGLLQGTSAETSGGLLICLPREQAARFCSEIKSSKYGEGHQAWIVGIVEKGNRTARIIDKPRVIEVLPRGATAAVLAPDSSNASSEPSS
T1 sequence (A5D8V6 whole entry): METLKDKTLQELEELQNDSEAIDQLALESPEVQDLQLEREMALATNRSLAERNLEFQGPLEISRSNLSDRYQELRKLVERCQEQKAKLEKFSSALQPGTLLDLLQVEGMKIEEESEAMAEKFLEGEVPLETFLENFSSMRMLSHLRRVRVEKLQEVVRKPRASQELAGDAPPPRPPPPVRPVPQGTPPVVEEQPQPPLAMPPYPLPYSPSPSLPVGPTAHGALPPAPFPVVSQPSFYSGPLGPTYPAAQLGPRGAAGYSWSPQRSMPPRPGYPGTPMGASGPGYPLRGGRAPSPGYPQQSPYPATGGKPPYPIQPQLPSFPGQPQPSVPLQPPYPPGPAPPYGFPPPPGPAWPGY
T4 sequence (P12931 2-536): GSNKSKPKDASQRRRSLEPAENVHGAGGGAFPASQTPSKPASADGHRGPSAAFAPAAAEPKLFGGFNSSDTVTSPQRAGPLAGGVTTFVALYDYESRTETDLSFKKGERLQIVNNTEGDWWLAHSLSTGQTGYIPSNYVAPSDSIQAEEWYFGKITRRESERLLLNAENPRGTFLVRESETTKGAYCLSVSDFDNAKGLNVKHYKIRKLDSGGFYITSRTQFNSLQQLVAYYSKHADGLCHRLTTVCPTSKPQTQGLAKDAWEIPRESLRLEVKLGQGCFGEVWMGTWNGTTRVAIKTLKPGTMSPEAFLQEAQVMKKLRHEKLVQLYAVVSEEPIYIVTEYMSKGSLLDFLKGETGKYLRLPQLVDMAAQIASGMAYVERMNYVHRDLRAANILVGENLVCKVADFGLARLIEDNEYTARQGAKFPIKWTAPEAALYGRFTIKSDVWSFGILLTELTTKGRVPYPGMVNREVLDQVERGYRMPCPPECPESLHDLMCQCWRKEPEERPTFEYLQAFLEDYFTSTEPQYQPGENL
T2 sequence (Q1JPZ3 whole entry): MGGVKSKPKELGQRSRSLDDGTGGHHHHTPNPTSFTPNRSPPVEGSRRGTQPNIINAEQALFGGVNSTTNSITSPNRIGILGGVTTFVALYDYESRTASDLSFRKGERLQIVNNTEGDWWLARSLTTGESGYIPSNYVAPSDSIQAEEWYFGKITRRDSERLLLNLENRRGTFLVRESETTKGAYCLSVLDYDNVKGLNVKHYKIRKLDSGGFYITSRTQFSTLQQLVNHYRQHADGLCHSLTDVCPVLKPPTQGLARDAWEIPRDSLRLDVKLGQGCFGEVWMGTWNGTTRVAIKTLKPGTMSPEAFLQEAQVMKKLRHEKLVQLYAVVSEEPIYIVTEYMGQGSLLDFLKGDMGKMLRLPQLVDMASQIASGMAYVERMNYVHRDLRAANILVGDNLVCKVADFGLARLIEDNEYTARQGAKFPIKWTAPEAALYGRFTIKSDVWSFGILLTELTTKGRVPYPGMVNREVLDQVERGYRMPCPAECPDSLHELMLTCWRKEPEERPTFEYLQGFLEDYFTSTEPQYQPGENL

| Compound | target proteins identified by POST-IT^DC661-H1 (SILAC) (HEK293T cells [1]) | levels of LC3-II band (autophagy inhibition) (LC3-II [2]) | enrichment of VPS37C-V5 after streptavidin pulldown (VPS37C-V5) | levels of LC3-II band (autophagy inhibition) (LC3-II [3]) | target proteins identified by POST-IT^DH5 (HEK293T cells [4]; HEK293T, 250 nM DH5 with or without 2.5 µM dasatinib, 24 hr) | FC(DH5/DASA) (HEK293T cells [4]; protein AAGAB) | log2(FC(DH5/DASA)) (HEK293T cells [4]; protein AAGAB) | FC(DH5/DASA) (HEK293T cells [4]; protein AAK1) | log2(FC(DH5/DASA)) (HEK293T cells [4]; protein AAK1) | FC(DH5/DASA) (HEK293T cells [4]; protein AAMDC) | log2(FC(DH5/DASA)) (HEK293T cells [4]; protein AAMDC) | FC(DH5/DASA) (HEK293T cells [4]; protein AAR2) | log2(FC(DH5/DASA)) (HEK293T cells [4]; protein AAR2) | FC(DH5/DASA) (HEK293T cells [4]; protein AARS) | log2(FC(DH5/DASA)) (HEK293T cells [4]; protein AARS) | enrichment of endogenous SRC by POST-IT in live embryos (SRC [5]) | Kd (SEPHS2) [µM] | POST-IT pulldown of endogenous SRC (SRC [6]) | IC50 (SRC(251-536)) [µM] |
| --- | --- | --- | --- | --- | --- | --- | --- | --- | --- | --- | --- | --- | --- | --- | --- | --- | --- | --- | --- |
| O=C(CN(CCCCCCNc1ccnc2cc(Cl)ccc12)CCCCCCNc1ccnc2cc(Cl)ccc12)NCCCCCNC(=O)OCCOCCOCCOC(=O)NCCOCCOCCCCCCCl [DC661-H1] | identified several target proteins directly linked to autophagy regulation | significantly increased | substantially enriched | significantly increased |  |  |  |  |  |  |  |  |  |  |  |  |  |  |  |
| Cc1nc(Nc2ncc(C(=O)Nc3c(C)cccc3Cl)s2)cc(N2CCN(CCOC(=O)NCCCCCNC(=O)OCCOCCOCCOC(=O)NCCOCCOCCCCCCCl)CC2)n1 [DH5, 23-Chloro-10-oxo-3,6,9,14,17-pentaoxa-11-azatricosyl(2-(4-(6-((5-((2-chloro-6-methylphenyl)carbamoyl)thiazol-2-yl)amino)-2-methylpyrimidin-4-yl)piperazin-1-yl)ethyl) pentane-1,5-diyldicarbamate] |  |  |  |  | eight known target proteins (FYN, RIPK2, MAPK14, ABL2, ABL1, CSK, LYN, and SRC) with significant enrichment | 1.3259 | 0.4070 | 2.0012 | 1.0009 | 1.9368 | 0.9537 | 1.5565 | 0.6383 | 1.1988 | 0.2616 | marked enrichment | 11.6 ± 5.7 | efficiently pull down endogenous SRC | 0.452 |
